Test results reported in US8389512B2 (priority 2008, dated 2013).
Blank lines part the entries; values can stand above or below the compound they belong to.

What was measured:
[1] = 4 hr in-vivo study: meloxicam plasma concentration after oral delivery to rats; conditions: rat
Source text: Male Sprague-Dawley rats, 250-300 g, received with a surgically implanted jugular catheter in place from (Harlan or Taconic Laboratories, USA). Animals were housed one per polycarbonate cage utilizing individual cage cards, with free access to food and water in accordance with NIH guidelines. Animals were quarantined at least 24 hrs after arrival prior to use and patency of the implanted catheter determined on the day of the test. Environmental controls for the animal room were set to maintain 18 to 26° C., a relative humidity of 30 to 70%, a minimum of 10 air changes/hour, and a 12-hour light/12-hour dark cycle. […] Each rat was weighed and the dose volume adjusted accordingly so that the effect of weight variability on results of study was eliminated and that each rat received 1 mg/kg dose.
Briefly, using a gradient elution with a Waters Symmetry C18 column (Waters Inc. USA), LCMS with selective reaction monitoring, protein precipitation of the plasma sample using acetonitrile where an LOQ of 50 ng/ml was achieved. Pharmacokinetic parameters were calculated from individual animal samples using appropriate software (PK Solutions 2.0, Summit Research Services, Montrose, Calif., USA).

[2] = 24 hr in-vivo study: meloxicam plasma concentration and pharmacokinetics after oral (gavage) administration to male rats; conditions: for Time to Reach 0.59 μg/ml: calculated by interpolation of time vs. concentration data
Source text: Male Sprague-Dawley rats, 250-300 g, received with a surgically implanted jugular catheter in place from (Harlan or Taconic Laboratories, USA). Animals were housed one per polycarbonate cage utilizing individual cage cards, with free access to food and water in accordance with NIH guidelines. Animals were quarantined at least 24 hrs after arrival prior to use and patency of the implanted catheter determined on the day of the test. Environmental controls for the animal room were set to maintain 18 to 26° C., a relative humidity of 30 to 70%, a minimum of 10 air changes/hour, and a 12-hour light/12-hour dark cycle. Rats historically have been used in safety evaluation and PK screening studies and are recommended by appropriate regulatory agencies. […] Each rat was weighed and the dose volume adjusted accordingly so that the effect of weight variability on results of study was eliminated and that each rat received 1 mg/kg dose.
(§1) Pharmacokinetic parameters were calculated from individual animal samples using appropriate software (PK Solutions 2.0, Summit Research Services, Montrose, Calif., USA).

[3] = IV comparator group, meloxicam pharmacokinetics in rats; assay type: in vivo; conditions: Sprague-Dawley, rat, plasma, 1 mg/kg, PEG400:DMSO formulation
Protocol: In addition, IV comparator group of 5 rats was used to calculate MAT (mean absorption time) and ka (absorption rate constant) parameters since such parameters cannot be determined for the oral groups.
200 micro liters of blood withdrawn from the indwelling intravenous catheter at 5 minutes, 15 minutes, 30 minutes, 45 minutes, 1, 2, 4, 8, 12 and 24 hours to provide sufficient amount of serum for analysis.
as §1

[4] = cited from earlier work
[5] = Accelerated stability testing of cocrystals (PXRD, FTIR); conditions: 2 months at 40° C.
[6] = male, Sprague-Dawley, rat, plasma, po, 1 mg/kg
[7] = male rats, 1 mg/kg oral, mean N = 5

Compound: Cc1cnc(NC(=O)C2=C(O)c3ccccc3S(=O)(=O)N2C)s1 [Meloxicam, (8E)-8-[hydroxy-[(5-methyl-1,3-thiazol-2-yl)amino]methylidene]-9-methyl-10,10-dioxo-10λ^6-thia-9-azabicyclo[4.4.0]deca-1,3,5-trien-7-one, reference compound]
- concentration at 0 min ([1]; male, Sprague-Dawley, plasma, 1 mg/kg, time 0 min): 0 ng/mL
- concentration at 15 min ([1]; male, Sprague-Dawley, plasma, 1 mg/kg, time 15 min): 8190 ng/mL
- concentration at 30 min ([1]; male, Sprague-Dawley, plasma, 1 mg/kg, time 30 min): 14800 ng/mL
- concentration at 45 min ([1]; male, Sprague-Dawley, plasma, 1 mg/kg, time 45 min): 19600 ng/mL
- concentration at 60 min ([1]; male, Sprague-Dawley, plasma, 1 mg/kg, time 60 min): 24000 ng/mL
- concentration at 120 min ([1]; male, Sprague-Dawley, plasma, 1 mg/kg, time 120 min): 30200 ng/mL
- concentration at 240 min ([1]; male, Sprague-Dawley, plasma, 1 mg/kg, time 240 min): 39400 ng/mL
- Time to Reach 0.59 μg/ml ([2]; male rats, 1 mg/kg oral): 270.0 min
- AUC [2, 6]: 10000 ng·h/mL
- Cmax [2, 6]: 590 ng/mL
- MRT [2, 6]: 21.8 h
- bioavailability [2, 6]: 15.7%
- concentration at 0.0833 hour [2, 6]: 20 ng/mL
- concentration at 0.25 hour [2, 6]: 190 ng/mL
- concentration at 0.5 hour [2, 6]: 280 ng/mL
- concentration at 0.75 hour [2, 6]: 320 ng/mL
- concentration at 1 hour [2, 6]: 390 ng/mL
- concentration at 2 hour [2, 6]: 510 ng/mL
- concentration at 4 hour [2, 6]: 540 ng/mL
- concentration at 8 hour [2, 6]: 530 ng/mL
- concentration at 12 hour [2, 6]: 460 ng/mL
- concentration at 24 hour [2, 6]: 240 ng/mL
- AUC ([3]; read-out: AUC (area under the plasma concentration-time curve at 24 h)): 63600 ng·h/mL
- MRT ([3]; read-out: MRT (mean residence time)): 14.7 h
- solubility in methanol ([4]; methanol): very slightly soluble
- solubility in strong acids and bases ([4]; strong acids and bases, compared with water): higher solubility
- solubility in water ([4]; water): practically insoluble

- meloxicam plasma concentration ([1]; time 0 min): 0 µg/mL
- meloxicam plasma concentration ([1]; time 15 min): 26.94 µg/mL
- meloxicam plasma concentration ([1]; time 30 min): 42.67 µg/mL
- meloxicam plasma concentration ([1]; time 45 min): 50.18 µg/mL
- meloxicam plasma concentration ([1]; time 60 min): 52.67 µg/mL
- meloxicam plasma concentration ([1]; time 120 min): 59.23 µg/mL
- meloxicam plasma concentration ([1]; time 240 min): 60.85 µg/mL
- meloxicam plasma concentration ([2]; male rats, 1 mg/kg oral, N = 5, 0.0833 hour): 0.13 µg/mL
- meloxicam plasma concentration ([2]; male rats, 1 mg/kg oral, N = 5, 0.25 hour): 0.87 µg/mL
- meloxicam plasma concentration ([2]; male rats, 1 mg/kg oral, N = 5, 0.5 hour): 1.14 µg/mL
- meloxicam plasma concentration ([2]; male rats, 1 mg/kg oral, N = 5, 0.75 hour): 1.37 µg/mL
- meloxicam plasma concentration ([2]; male rats, 1 mg/kg oral, N = 5, 1 hour): 1.74 µg/mL
- meloxicam plasma concentration ([2]; male rats, 1 mg/kg oral, N = 5, 2 hour): 2.49 µg/mL
- meloxicam plasma concentration ([2]; male rats, 1 mg/kg oral, N = 5, 4 hour): 2.51 µg/mL
- meloxicam plasma concentration ([2]; male rats, 1 mg/kg oral, N = 5, 8 hour): 2.34 µg/mL
- meloxicam plasma concentration ([2]; male rats, 1 mg/kg oral, N = 5, 12 hour): 1.83 µg/mL
- meloxicam plasma concentration ([2]; male rats, 1 mg/kg oral, N = 5, 24 hour): 1.16 µg/mL
- AUC (area under the plasma concentration-time curve at 24 h) [2, 7]: 44100 ng·h/mL
- Cmax (peak plasma concentration) [2, 7]: 2700 ng/mL
- F (bioavailability) [2, 7]: 69.4%
- Time to Reach 0.59 μg/ml ([2]; male rats, 1 mg/kg oral): 10.6 min
- Stability in accelerated stability testing (PXRD profiles) ([5]; 75% RH open and closed vials, and 6 months at 40° C. open vial): stable for 6 months
- Stability in accelerated stability testing (FTIR profiles) ([5]; 75% RH, vials open or closed): stable for 2 months
Compound: Meloxicam:Aspirin Cocrystal (1:1) [Cocrystal 73]
